Assay results: US20060265137A1, “Methods to increase the capacity of high content cell-based screening assays” (Cellomics, Inc., priority 2001, published 2006)

Legend:
p38 and c-jun = assay: Primary high content screen, red channel: cytoplasm to nucleus translocation of p38 and c-jun (pooled reporter set); format: cell-based; conditions: Swiss 3T3 cells, 30 minutes treatment, ALEXA FLUOR 568 secondary antibodies, FIG. 6
Source text: (§1) 1. Cytoplasm to nuclear translocation: (A preferred embodiment of the method is described in detail in U.S. Pat. No. 5,989,835) A nuclear image is acquired and preferably thresholded to create a nuclear mask. A cytoplasmic image is created using either the nuclear image or the fluorescent signals from the fluorescent reporter molecules in the reporter set. Preferably, a cytoplasmic mask is created. Translocation of the fluorescent reporter molecules in an appropriate reporter set(s) between the nucleus and cytoplasm can then be determined by detecting fluorescent signals in the nuclear mask and cytoplasmic mask in the presence and absence of the one or more test compounds.
(§2) In this example, two reporter sets were used, each containing two fluorescent reporter molecules. The first reporter set consisted of ALEXA FLUOR® 488 conjugated secondary antibodies (Molecular Probes, Inc.), which both emit fluorescence detectable in the green channel. These secondary antibodies were used to bind to primary antibodies against extracellular (signal) regulated kinase (ERK) (Cell Signaling Technologies, Inc.) and Nf-kB (Zymed, Inc.). The second reporter set consisted of ALEXA FLUOR® 568 conjugated secondary antibodies (Molecular Probes, Inc.) which both emit fluorescence detectable in the red channel. These secondary antibodies were used to bind to primary antibodies against c-jun and p38.
(§3) In this experiment, the transcription factors under investigation translocate from the cytoplasm to the nucleus upon activation. Therefore, the fluorescent reporter molecules, which indirectly bind to the transcription factors, can be used to monitor the distribution of the transcription factors within the cell. However, each reporter reports on a different cellular event (i.e.: ERK translocation, Nf-kB translocation, c-jun translocation, and p38 translocation).
(§4) Swiss 3T3 cells in EMEM culture medium were plated in 96 well plates, at a plating density of 3,500 cells per well, and allowed to incubate overnight. […]

NFkB and ERK = assay: Primary high content screen, green channel: cytoplasm to nucleus translocation of NFkB and ERK (pooled reporter set); format: cell-based; conditions: Swiss 3T3 cells, 30 minutes treatment, ALEXA FLUOR 488 secondary antibodies, versus negative controls, FIG. 5
Source text: as §1, §2, §3, §4

Molecule: TNF
- translocation in the red channel (p38 and c-jun) (p38 and c-jun): not
- translocation in the green channel (NFkB and ERK; difference between cytoplasm and nuclear localization) (NFkB and ERK): both NFkB and ERK specific translocations can be observed

Molecule: COc1ccc(C[C@H]2NC[C@H](O)[C@H]2OC(C)=O)cc1 [anisomysin]
- translocation in the red channel (p38 and c-jun) (p38 and c-jun): increase in translocation for p38 and c-jun
- translocation in the green channel (NFkB and ERK; difference between cytoplasm and nuclear localization) (NFkB and ERK): no effect on translocation in the green channel over negative controls

Molecule: CCCCCCCCCCCCCC(=O)O[C@@H]1[C@@H](C)[C@@]2(O)[C@@H](C=C(CO)C[C@]3(O)C(=O)C(C)=C[C@@H]23)[C@@H]2C(C)(C)[C@]12OC(C)=O [PMA]
- translocation in the red channel (p38 and c-jun) (p38 and c-jun): increase in translocation for p38 and c-jun
- translocation in the green channel (NFkB and ERK; difference between cytoplasm and nuclear localization) (NFkB and ERK): both NFkB and ERK specific translocations can be observed
